Laboratory results taken from ChEMBL document CHEMBL6182843, “Actinomycetes: Treasure trove for discovering novel antibiotic candidates” (2025).
In brackets after ≈: the same amount, converted by molar mass.

What was measured:
Assay type in all cases: functional
Enterococcus faecalis = test: Antibacterial activity against Enterococcus faecalis ATCC 29212 assessed as reduction in microbial growth by CLSI protocol based Mueller-Hinton broth micro-dilution method
Staphylococcus aureus [1] = test: Antimicrobial activity against Staphylococcus aureus ATCC 25913 assessed as reduction in bacterial growth by CLSI protocol based Mueller-Hinton broth micro-dilution method
Bacillus subtilis [2] = test: Antibacterial activity Bacillus subtilis ATCC 49343 assessed as reduction in bacterial growth
Staphylococcus aureus [3] = test: Antibacterial activity Staphylococcus aureus ATCC 25923 assessed as reduction in bacterial growth
Escherichia coli [4] = test: Antibacterial activity Escherichia coli ATCC 8739 assessed as reduction in bacterial growth
Micrococcus luteus = test: Antibacterial activity against Micrococcus luteus ML01 assessed as reduction in bacterial growth incubated for 24 to 48 hrs by serial dilution method; conditions: time 24-48 hrs
Staphylococcus aureus [5] = test: Antibacterial activity against methicillin-Staphylococcus aureus ATCC 29213 assessed as reduction in bacterial growth by broth micro-dilution method
Staphylococcus aureus [6] = test: Antibacterial activity against Staphylococcus aureus
Bacillus subtilis [7] = test: Antibacterial activity against Bacillus subtilis
Escherichia coli [8] = test: Antibacterial activity against Escherichia coli DH5a
Staphylococcus aureus [9] = test: Antibacterial activity against methicillin-resistant Staphylococcus aureus MB5393 assessed as reduction in bacterial growth incubated for 18 to 20 hrs by broth micro-dilution method; conditions: time 18-20 hrs
Kocuria rhizophila = test: Antimicrobial activity against Kocuria rhizophila ATCC 9341 assessed as reduction in microbial growth
Acinetobacter baumannii = test: Antibacterial activity against Acinetobacter baumannii ATCC 19606 assessed as reduction in microbial growth by CLSI protocol based broth micro-dilution method
[10] = tested on: Erysipelothrix rhusiopathiae; test: Antibacterial activity against Erysipelothrix rhusiopathiae WH13013 assessed as reduction in bacterial growth by CLSI protocol based MHB micro-silution method
Streptococcus suis = test: Antibacterial activity against Streptococcus suis SC19 assessed as reduction in bacterial growth by CLSI protocol based MHB micro-silution method
Staphylococcus aureus [11] = test: Antibacterial activity against Staphylococcus aureus ATCC 25923 assessed as reduction in bacterial growth by CLSI protocol based MHB micro-silution method

## C[C@@H](O)[C@@H]1CC[C@H](c2ccc(O)c3c2C(=O)[C@@]24O[C@@]2([C@@H](C)O[C@@H]2CC(=O)O[C@@H]24)[C@H]3O)N1C
Enterococcus faecalis
  MIC: 40 µg/mL
Staphylococcus aureus [1]
  MIC: 40 µg/mL (≈ 89.8 µM)

## C=C(C)[C@@H]1CC[C@H](C)[C@H]2CC/C(C)=C/C[C@H](O)/C(C(=O)O)=C/[C@H]21
Bacillus subtilis [2]
  MIC: 1.1 µg/mL (≈ 3.45 µM)
Staphylococcus aureus [3]
  MIC: 49.7 µg/mL (≈ 156 µM)
Escherichia coli [4]
  MIC: 125 µg/mL (≈ 394 µM)

## COC(=O)c1[nH]c(C(=O)O)c(-c2c[nH]c3c(Cl)cccc23)c1-c1c[nH]c2c(Cl)cccc12
Micrococcus luteus
  MIC: 16 µg/mL (≈ 34.2 µM)
Staphylococcus aureus [5]
  MIC: 3 µg/mL (≈ 6.41 µM)

## COc1ccc(OC)c([C@@H](O)[C@@H](C)C(=O)c2ccc(OC)c(C(=O)O)c2O)c1
Staphylococcus aureus [6]
  MIC: 18 µg/mL (≈ 46.1 µM)
Bacillus subtilis [7]
  MIC: 10 µg/mL (≈ 25.6 µM)
Escherichia coli [8]
  MIC: > 100 µg/mL

## O=C1NC(=O)C(c2c[nH]c3cc(Cl)c(Cl)cc23)=C1c1c[nH]c2ccc(Cl)cc12
Micrococcus luteus
  MIC: 0.5 µg/mL (≈ 1.16 µM)
Staphylococcus aureus [5]
  MIC: 1 µg/mL (≈ 2.32 µM)

## CC[C@@H](/C=C/[C@@H]1C/C=C(\C)[C@@H](O)[C@@H](C)[C@H](O[C@H]2O[C@H](CO)[C@H](O)[C@@H](O)[C@H]2O)C[C@@H](O)[C@@H](C)[C@H](O)C[C@@H]2C[C@H](O)[C@@H](O)[C@](O)(C[C@@H](O[C@H]3O[C@@H](C)[C@H](O)[C@@H](O[C@H]4C[C@H](N)[C@@H](O)[C@@H](C)O4)[C@@H]3O[C@H]3O[C@@H](C)[C@H](O)[C@@H](O)[C@@H]3O)[C@@H](C)/C=C/[C@@H](O)C[C@@H](O)[C@@H](C)/C=C/C(=O)O1)O2)[C@@H](O)[C@@H](C)[C@H](CC)O[C@H]1C[C@](C)(N)[C@H](O)[C@H](C)O1
Staphylococcus aureus [9]
  MIC: 2 µg/mL (≈ 1.26 µM)

## CC(C)C[C@H](NC(=O)/C=N/O)[C@@H](O)[C@@H](C)C(=O)O
Kocuria rhizophila
  MIC: 50 µg/mL

## CC[C@@H](/C=C/[C@@H]1C/C=C(\C)[C@@H](O)[C@@H](C)[C@H](O)C[C@@H](O)[C@@H](C)[C@H](O)C[C@@H]2C[C@H](O)[C@@H](O)[C@](O)(C[C@@H](O[C@H]3O[C@@H](C)[C@H](O)[C@@H](O[C@H]4C[C@H](N)[C@@H](O)[C@@H](C)O4)[C@@H]3O[C@H]3O[C@@H](C)[C@H](O)[C@@H](O)[C@@H]3O)[C@@H](C)/C=C/[C@@H](O)C[C@@H](O)[C@@H](C)/C=C/C(=O)O1)O2)[C@@H](O)[C@@H](C)[C@H](CC)O[C@H]1C[C@](C)(N)[C@H](O)[C@H](C)O1
Staphylococcus aureus [9]
  MIC: 1 µg/mL (≈ 0.702 µM)

## COc1cc(-c2ccccn2)nc(/C=N/O)c1S(C)(=O)=O
Acinetobacter baumannii
  MIC: 128 µg/mL

## C[C@@H](O)[C@@H]1CC[C@H](c2ccc(O)c3c2C(=O)[C@]24O[C@]2([C@@H](C)O[C@@H]2CC(=O)O[C@@H]24)[C@H]3O)N1C
Enterococcus faecalis
  MIC: 40 µg/mL
Staphylococcus aureus [1]
  MIC: 40 µg/mL (≈ 89.8 µM)

## C=C(C)[C@@H]1CC[C@H](C)[C@H]2CC/C(C)=C/CC/C(C)=C/[C@H]21
Bacillus subtilis [2]
  MIC: 48.4 µg/mL (≈ 178 µM)
Staphylococcus aureus [3]
  MIC: 86.9 µg/mL (≈ 319 µM)
Escherichia coli [4]
  MIC: 133 µg/mL (≈ 488 µM)

## C[C@@H](O)Cc1cc(O)cc2c1C(=O)c1c(O)ccc(O)c1C2=O
[10]
  MIC: 6.25 µg/mL (≈ 19.9 µM)
Streptococcus suis
  MIC: 12.5 µg/mL (≈ 39.8 µM)
Staphylococcus aureus [11]
  MIC: 0.78 µg/mL (≈ 2.48 µM)
